Experimental data: US6455760B1, “Expression of flavin-containing monoxygenases in plants” (The Salk Institute of Biological Studies, priority 2000, dated 2002)
“Also recorded” adds a separate entry of the source.

Columns and labels:
[1] = system: Arabidopsis WT and yucca mutants; format: in vivo, Arabidopsis thaliana; details: for sensitivity of yucca mutants to tryptophan analogs: yucca mutants compared with normal toxicity to plants
Description: Enhanced expression of the YUCCA gene overproduces auxin. […] Massive root growth was observed when yucca explants grew in Murashige and Skoog (MS) media. Callus was induced by adding cytokinin, and young yucca plants that are regenerated in MS media containing cytokinin. A GUS reporter gene controlled by an auxin responsive element was expressed at much higher level in yucca. […] In addition, YUCCA appears to be involved in tryptophan-dependent auxin synthesis. […] In the presence of 100 μM 5-methyl tryptophan, WT plant material died while yucca survived.

yucca mutant = format: in vivo, Arabidopsis thaliana
[2] = system: Arabidopsis WT and yucca mutants; experiment: Auxin transport block by NPA in growth medium, club root development; format: in vivo, Arabidopsis thaliana
From the text: It was also discovered that auxin transport in yucca was blocked by application of transport inhibitor naphthylthalamic acid (NPA), resulting in yucca mutants having a giant root, called a “club root” due to its thick, short appearance. This club root was substantially thicker than the regular yucca root, which is already thicker than the WT root. […] The club root produced by blocking auxin transport in yucca mutants may provide an important tool for studying root growth and development.

[3] = biological target: T1, recombinant YUCCA gene product (SEQ ID NO. 2) (Arabidopsis thaliana, UniProt Q9SZY8); experiment: FMO activity assay of recombinant YUCCA gene product with tryptamine (TLC, mass spectroscopy); format: biochemical; details: 2 mM tryptamine, 1 mM NADP+, glucose-6-phosphate, glucose-6-phosphate dehydrogenase, 37° C.
T1 construct: 2, was recovered from the E. coli overexpression system; made in house; host or cells: E. coli (vector pMalC2)
T1 sequence (Q9SZY8 1-414): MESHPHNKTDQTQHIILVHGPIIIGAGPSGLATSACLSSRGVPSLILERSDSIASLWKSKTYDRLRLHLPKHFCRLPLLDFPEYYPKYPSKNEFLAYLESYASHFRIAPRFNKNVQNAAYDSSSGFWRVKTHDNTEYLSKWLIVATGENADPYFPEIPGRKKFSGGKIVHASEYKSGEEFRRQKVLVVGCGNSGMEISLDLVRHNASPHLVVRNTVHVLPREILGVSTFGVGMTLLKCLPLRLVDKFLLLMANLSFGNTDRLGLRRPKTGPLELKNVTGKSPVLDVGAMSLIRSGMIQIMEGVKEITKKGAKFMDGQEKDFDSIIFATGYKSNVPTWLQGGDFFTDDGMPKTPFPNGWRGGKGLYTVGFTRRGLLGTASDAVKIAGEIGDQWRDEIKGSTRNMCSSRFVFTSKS
From the text: Enzymatic activity of the YUCCA gene product. In one experiment, the YUCCA gene was transformed into an E. coli overexpression vector and the recombinant YUCCA gene product, a polypeptide having the amino acid sequence of SEQ ID NO. 2, was recovered from the E. coli overexpression system. […] Thus, the amino acid sequence of SEQ ID NO: 2 can be used to metabolize tryptamine, whether endogenous or exogenous, as well as to generate N-hydroxyl tryptamine.
Effect of YUCCA overexpression in E. coli on detectable FMO activity. To test the enzymatic activity of the YUCCA gene product, YUCCA (SEQ ID NO. 1) was transformed into an E. coli overexpression vector pMalC2 and the recombinant YUCCA gene product was recovered, using the method of Brunelle et al., (Drug Metab Dispos (1997) 25:1001). For activity assays, the recombinant YUCCA gene product was incubated with 2 mM tryptamine, 1 mM NADP^+, 1 mM glucose-6-phosphate, and glucose-6-phosphate dehydrogenase at 37° C. Reactions were stopped by adding an equal volume of methanol. Substrate and products were separated by thin-layer-chromatography (TLC) with CH2CL2/methanol/TEA (75:20:5). The product was eluted from TLC plates and mass spectroscopy was performed to determine the molecular mass of the product.

## N[C@@H](Cc1c[nH]c2ccc(F)cc12)C(=O)O [5-fluoro-tryptophan]
[1]
  sensitivity of yucca mutants to tryptophan analogs: less sensitive

## Cc1ccc2[nH]cc(C[C@H](N)C(=O)O)c2c1 [5-methyl tryptophan]
[1]; WT, in the presence of 100 μM
  survival of WT plant material: died
[1]; yucca mutant, in the presence of 100 μM
  survival of yucca: survived
[1]
  sensitivity of yucca mutants to tryptophan analogs: less sensitive

## NC1(C(=O)O)CC1 [ACC, 1-aminocyclopropane-1-carboxylate]
Yucca mutant; 5 μM
  effect on yucca cotyledon: did not change the appearance of the yucca cotyledon
  effect on yucca hypocotyl: suppressed the elongated yucca hypocotyl

## C=C [Ethylene]
Yucca mutant; ethylene treatment
  effect on the yucca mutant: little effect

## O=C(O)c1ccccc1C(=O)Nc1cccc2ccccc12 [NPA, naphthylthalamic acid]
[2]; Wild type (WT) Arabidopsis
  club root development in wild type: did not develop a club root
[2]; 50 μM in the growth medium
  club root development in yucca mutants: multiple club roots
[2]; 100 μM in the growth medium
  club root development in yucca mutants: a single club root

## NCCc1c[nH]c2ccccc12 [tryptamine]
[3]
  substrate conversion by recombinant YUCCA gene product: able to convert tryptamine to N-hydroxyl tryptamine; also recorded: use tryptamine as a substrate to generate N-hydroxyl tryptamine
